Measurements taken from paper PMC3501516, “Anti-Diabetic Efficacy and Impact on Amino Acid Metabolism of GRA1, a Novel Small-Molecule Glucagon Receptor Antagonist” (PLoS ONE, 2012).
Read-outs that look alike come from different tables or passages of the source.

Tests used:
[1] = Pharmacokinetics / plasma GRA1 concentrations in hGCGR mice; type: in vivo; settings: mouse
Description: Under control conditions, hGCGR mice were normoglycemic and treatment of these animals with GRA1 lowered blood glucose concentrations only moderately.
Figure 2 In vivo inhibition of hepatic ^125I-glucagon binding in the hGCGR mouse following (A) acute and (B) chronic dosing with GRA1. The data are mean (±SEM) percent reductions in liver ^125I-glucagon content measured (A) 1, 3, 5, and 8 h after a single oral dose of 3 mg/kg GRA1, and (B) after treatment for 30 days with control diet or food/drug admixtures that provided 3, 6, 10, or 30 mg/kg·day GRA1. Pharmacokinetic analysis performed during the experiment in (A) determined that mean plasma GRA1 concentrations were 0.5, 0.6, 0.5, and 0.7 µM at 1, 3, 5, and 8 h postdose, respectively. TEXT PRINTED IN THE PICTURE: (A) no label printed: Receptor occupancy (%): 64% (Time postdose (h): 1); Receptor occupancy (%): 71% (Time postdose (h): 3); Receptor occupancy (%): 65% (Time postdose (h): 5); Receptor occupancy (%): 73% (Time postdose (h): 8) | (B) no label printed: Receptor occupancy (%): 71% (Dose (mg/kg): 3); Receptor occupancy (%): 78% (Dose (mg/kg): 6); Receptor occupancy (%): 83% (Dose (mg/kg): 10); Receptor occupancy (%): 93% (Dose (mg/kg): 30)
Figure 3 Blunting of glucagon-induced blood glucose excursions by GRA1 treatment in the (A) hGCGR mouse and (B) rhesus monkey. In (A), mice (n = 8) were administered vehicle or 3, 10 or 30 mg/kg GRA1, then challenged 1 h later (time 0) by intraperitoneal injection of 15 µg/kg glucagon or vehicle. Pharmacokinetic analysis determined that these animals had mean plasma GRA1 concentrations of 0.4, 0.9, and 4.7 µM, respectively, at 1 h postdose. In (B), monkeys (n = 4) were administered 1 mg/kg GRA1 4 h prior to intramuscular injection of 15 µg/kg glucagon or vehicle. At 1 h postdose, the mean plasma GRA1 concentration in these animals was 0.2 µM. *p<0.05; **p<0.01; and ***p<0.001 vs. glucagon-treated control animals.

[2] = Pharmacokinetics / plasma GRA1 concentrations in rhesus monkeys; type: in vivo, rhesus monkey
[3] = target: T1, hepatic hGCGR (Homo sapiens, UniProt P47871); assay: In vivo inhibition of hepatic 125I-glucagon binding (hGCGR occupancy) in hGCGR mouse
T1 construct: a transgenic line of mouse that expresses the hGCGR instead of the murine GCGR; from tissue; host or cells: liver of hGCGR mouse, in vivo
Description: Inhibition of ^125I-glucagon binding to hGCGR (a measure of hGCGR occupancy by antagonist) was assayed in hGCGR mouse liver in vivo as previously described. Glycogen content of perfused hGCGR mouse liver was measured as previously described. In brief, livers were perfused ex vivo with Ringers solution containing 6.7 mM [2-^13C]pyruvate while ^13C content (indicative of accumulated [^13C]glycogen) was monitored dynamically by nuclear magnetic resonance imaging.
Figure 2 In vivo inhibition of hepatic ^125I-glucagon binding in the hGCGR mouse following (A) acute and (B) chronic dosing with GRA1. The data are mean (±SEM) percent reductions in liver ^125I-glucagon content measured (A) 1, 3, 5, and 8 h after a single oral dose of 3 mg/kg GRA1, and (B) after treatment for 30 days with control diet or food/drug admixtures that provided 3, 6, 10, or 30 mg/kg·day GRA1.

[4] = hGCGR.ob/ob mice, 10 mg/kg•day food admixture, 5 weeks

T1 sequence (P47871 26-477): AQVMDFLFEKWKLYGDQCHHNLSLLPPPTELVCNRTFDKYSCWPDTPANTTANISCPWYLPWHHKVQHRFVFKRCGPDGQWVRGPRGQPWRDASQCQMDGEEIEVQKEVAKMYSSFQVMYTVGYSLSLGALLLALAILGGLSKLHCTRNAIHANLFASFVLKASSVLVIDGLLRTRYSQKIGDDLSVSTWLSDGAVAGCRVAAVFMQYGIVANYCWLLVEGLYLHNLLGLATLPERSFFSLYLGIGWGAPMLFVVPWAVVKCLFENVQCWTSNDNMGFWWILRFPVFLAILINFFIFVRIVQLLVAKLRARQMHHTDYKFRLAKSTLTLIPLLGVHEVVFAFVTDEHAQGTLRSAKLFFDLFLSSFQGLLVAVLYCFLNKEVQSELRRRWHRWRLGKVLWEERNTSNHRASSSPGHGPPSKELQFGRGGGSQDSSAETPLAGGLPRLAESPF

Structure (SMILES): COc1ccc2cc(-c3cc(-c4cc(C(F)(F)F)ccc4F)nn3[C@@H](C)c3ccc(C(=O)NCCC(=O)O)cc3)ccc2c1 [GRA1, N-[4-((1S)-1-{3-(2-fluoro-5-trifluoromethylphenyl)-5-[6-methoxynaphth-2-yl]-1H-pyrazol-1-yl}ethyl)benzoyl]-β-alanine]
- concentration at 1 h ([1]; oral, 3 mg/kg p.o., 1 h postdose (glucagon challenge)): 400 nM
- concentration at 1 h ([1]; oral, 10 mg/kg p.o., 1 h postdose (glucagon challenge)): 900 nM
- concentration at 1 h ([1]; oral, 30 mg/kg p.o., 1 h postdose (glucagon challenge)): 4700 nM
- concentration at 1 h ([1]; single oral 3 mg/kg, 1 h postdose (occupancy experiment)): 500 nM
- concentration at 3 h ([1]; single oral 3 mg/kg, 3 h postdose (occupancy experiment)): 600 nM
- concentration at 5 h ([1]; single oral 3 mg/kg, 5 h postdose (occupancy experiment)): 500 nM
- concentration at 8 h ([1]; single oral 3 mg/kg, 8 h postdose (occupancy experiment)): 700 nM
- concentration at 1 h ([2]; rhesus monkey, plasma, oral, 1 mg/kg, 1 h postdose (glucagon challenge)): 200 nM
- half-life ([2]; rhesus monkey, plasma, single oral dose 2 mg/kg, read-out: Apparent plasma terminal half-life (converted)): 6.3 h
- Fraction of the dose absorbed ([2]; single oral dose 2 mg/kg): 55%
- Route of excretion ([2]; single oral dose 2 mg/kg): nearly all absorbed drug was excreted unchanged via the bile
- receptor occupancy at 3 mg/kg ([3]; 30 days food admixture, 3 mg/kg·day, read-out: Receptor occupancy): 71%
- receptor occupancy at 6 mg/kg ([3]; 30 days food admixture, 6 mg/kg·day): 78%
- receptor occupancy at 10 mg/kg ([3]; 30 days food admixture, 10 mg/kg·day): 83%
- receptor occupancy at 30 mg/kg ([3]; 30 days food admixture, 30 mg/kg·day): 93%
- receptor occupancy at 3 mg/kg ([3]; po, single oral dose 3 mg/kg, 1 h postdose, read-out: Receptor occupancy): 64%
- receptor occupancy at 3 mg/kg ([3]; po, single oral dose 3 mg/kg, 3 h postdose, read-out: Receptor occupancy): 71%
- receptor occupancy at 3 mg/kg ([3]; po, single oral dose 3 mg/kg, 5 h postdose, read-out: Receptor occupancy): 65%
- receptor occupancy at 3 mg/kg ([3]; po, single oral dose 3 mg/kg, 8 h postdose, read-out: Receptor occupancy): 73%
- receptor occupancy at 3 mg/kg ([3]; po, single oral dose 3 mg/kg, for 1–8 h, read-out: Reduction of in vivo occupancy of hepatic hGCGR by 125I-glucagon): 64 to 73%
- Mean GRA1 plasma concentration ([4]; 4 PM): 0.77 ± 0.2 µM
- Mean GRA1 plasma concentration ([4]; 9AM): 1.7 ± 0.5 µM
